Laboratory results as given in US8071600B2, “Derivatives of 4-piperazin-1-yl-4-benzo[B]thiophene suitable for the treatment of CNS disorders” (Otsuka Pharmaceutical Co., Ltd., priority 2005, dated 2011).
pKi: −log10 of the molar value. Counter-ions that a name gives are not always drawn.

Assays:
[1] = target: T1, Serotonin 5-HT2A receptor (Rattus norvegicus, UniProt P14842); test: Serotonin 5-HT2A receptor binding assay ([3H]-Ketanserin); details: Serotonin 5-HT2A receptor binding test, rat frontal cortex membrane, Ki calculated from IC50 by Cheng-Prussoff formula
T1 construct: from tissue; host or cells: Wistar rat brain, frontal cortex membranes
T1 sequence (P14842 whole entry): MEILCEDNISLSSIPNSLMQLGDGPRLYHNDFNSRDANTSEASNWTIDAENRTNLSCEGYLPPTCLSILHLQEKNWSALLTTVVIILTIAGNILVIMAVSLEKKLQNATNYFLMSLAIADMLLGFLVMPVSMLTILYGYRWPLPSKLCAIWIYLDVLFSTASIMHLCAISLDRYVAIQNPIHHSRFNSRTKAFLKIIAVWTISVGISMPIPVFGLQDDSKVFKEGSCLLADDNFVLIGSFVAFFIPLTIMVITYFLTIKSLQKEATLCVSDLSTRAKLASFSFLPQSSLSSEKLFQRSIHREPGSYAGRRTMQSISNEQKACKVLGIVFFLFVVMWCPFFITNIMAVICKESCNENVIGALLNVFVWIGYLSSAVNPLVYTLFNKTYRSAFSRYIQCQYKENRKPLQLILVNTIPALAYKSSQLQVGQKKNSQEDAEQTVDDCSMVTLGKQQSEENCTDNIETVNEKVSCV
Experimental: 2) Serotonin 5-HT2A Receptor Binding Assay
The assay was performed according to the method by Leysen J E et al. (Leysen J E, Niemegeers C J E, Van Nueten J M and Laduron P M. [3H] Ketanserin (R 41 468), a selective 3H-ligand for serotonin 2 receptor binding sites. Mol. Pharmacol., 1982, 21: 301-314).
Wistar male rats were decapitated, the brain was retrieved immediately and frontal cortex was taken out. It was homogenized in 0.25 M sucrose of a volume 10 times of the weight of the tissue using a Teflon glass homogenizer, and centrifuged at 4° C., 1,000×g for 10 minutes. The obtained supernatant was transferred to another centrifuge tube and suspended in 0.25 M sucrose of a volume 5 times of the weight of the tissue and the precipitate was centrifuged in the above-described condition. The obtained supernatant was combined with the supernatant obtained above and adjusted to a volume 40 times of the weight of the tissue with 50 mM Tris-hydrochloric acid buffer (pH 7.4), and centrifuged at 4° C., 35,000×g for 10 minutes. The obtained precipitate was suspended again in the above-described buffer of a volume 40 times of the weight of the tissue and centrifuged in the above-described condition. The obtained precipitate was suspended in the above-described buffer of a volume 20 times of the weight of the tissue and preserved by freezing at −85° C. till it was used for binding assay as a membrane specimen.
The binding assay was performed using 40 μl of the membrane specimen, 20 μl of [^3H]-Ketanserin (final concentration 1 to 3 nM), 20 μl of a test drug and 50 mM Tris-hydrochloric acid buffer (pH 7.4) so that the total amount was 200 μl (final dimethylsulfoxide concentration 1%). The reaction was performed at 37° C. for 20 minutes and terminated by conducting suction filtration with a cell harvester on a glass fiber filter plate.
The filter plate made of glass fiber was washed with 50 mM Tris-hydrochloric acid buffer (pH 7.4), and after dried, a microplate liquid scintillation cocktail was added and the radioactivity was measured with a microplate scintillation counter. Radioactivity in the presence of 10 μM spiperone was assumed as nonspecific binding.
(§1) IC50 value was calculated from concentration-dependent reaction using a non-linear analysis program. Ki value was calculated from IC50 value using Cheng-Prussoff formula.

Dopamine D2 receptor = target: T2, Dopamine D2 receptor (Rattus norvegicus, UniProt P61169); test: Dopamine D2 receptor binding assay ([3H]-raclopride); details: Dopamine D2 receptor binding test, rat corpus striatum membrane, Ki calculated from IC50 by Cheng-Prussoff formula
T2 construct: from tissue; host or cells: Wistar rat brain, corpus striatum membranes
T2 sequence (P61169 whole entry): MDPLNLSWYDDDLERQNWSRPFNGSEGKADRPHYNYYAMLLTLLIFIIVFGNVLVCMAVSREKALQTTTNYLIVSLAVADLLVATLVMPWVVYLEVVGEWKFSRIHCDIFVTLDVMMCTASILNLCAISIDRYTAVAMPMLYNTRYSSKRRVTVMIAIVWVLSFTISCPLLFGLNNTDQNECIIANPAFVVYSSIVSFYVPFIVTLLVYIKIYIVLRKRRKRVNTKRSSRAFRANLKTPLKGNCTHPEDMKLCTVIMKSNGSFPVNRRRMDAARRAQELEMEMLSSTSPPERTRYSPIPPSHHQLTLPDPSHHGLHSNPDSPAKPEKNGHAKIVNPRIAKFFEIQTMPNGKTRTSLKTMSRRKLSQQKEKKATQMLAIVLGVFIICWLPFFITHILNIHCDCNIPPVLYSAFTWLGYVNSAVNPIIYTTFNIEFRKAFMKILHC
Experimental: 1) Dopamine D2 Receptor Binding Assay
The assay was performed according to the method by Kohler et al. (Kohler C, Hall H, Ogren S O and Gawell L, Specific in vitro and in vivo binding of 3H-raclopride. A potent substituted benzamide drug with high affinity for dopamine D-2 receptors in the rat brain. Biochem. Pharmacol., 1985; 34: 2251-2259).
Wistar male rats were decapitated, the brain was retrieved immediately and corpus striatum was taken out. It was homogenized in 50 mM tris(hydroxymethyl)aminomethane (Tris)-hydrochloric acid buffer (pH 7.4) of a volume 50 times of the weight of the tissue using a homogenizer with a high-speed rotating blade, and centrifuged at 4° C., 48,000×g for 10 minutes. The obtained precipitate was suspended again in the above-described buffer of a volume 50 times of the weight of the tissue and after incubated at 37° C. for 10 minutes, centrifuged in the above-described condition. The obtained precipitate was suspended in 50 mM (Tris)-hydrochloric acid buffer (containing 120 mM NaCl, 5 mM KCl, 2 mM CaCl2, 1 mM MgCl2, pH 7.4) of a volume 25 times of the weight of the tissue and preserved by freezing at −85° C. till it was used for binding assay as a membrane specimen.
The binding assay was performed using 40 μl of the membrane specimen, 20 μl of [^3H]-raclopride (final concentration 1 to 2 nM), 20 μl of a test drug and 50 mM Tris-hydrochloric acid buffer (containing 120 mM NaCl, 5 mM KCl, 2 mM CaCl2, 1 mM MgCl2, pH 7.4) so that the total amount was 200 μl (final dimethylsulfoxide concentration 1%). The reaction was performed at room temperature for 1 hour and terminated by conducting suction filtration with a cell harvester on a glass fiber filter plate. The filter plate made of glass fiber was washed with 50 mM Tris-hydrochloric acid buffer (pH 7.4), and after dried, a microplate liquid scintillation cocktail was added and the radioactivity was measured with a microplate scintillation counter. Radioactivity in the presence of 10 μM (+)-butaclamol hydrochloride was assumed as nonspecific binding.
as §1

Structure (SMILES)	melting point [°C]	pKi [1]	pKi (Dopamine D2 receptor)
Cl.c1cc(N2CCN(CCCOc3ccc4c(c3)CCN4)CC2)c2ccsc2c1	222.4 to 223.9	–	–
CN(C)C(=O)Nc1cc(OCCCN2CCN(c3cccc4sccc34)CC2)n(C)n1.Cl	174 to 176.5	–	–
Cn1nc(C(N)=O)cc1OCCCN1CCN(c2cccc3sccc23)CC1 [Example 4, 5-[3-(4-benzo[b]thiophen-4-yl-piperazin-1-yl)propoxy]-1-methyl-1H-pyrazole-3-carboxamide]	–	8.11	8.72
NC(=O)c1csc(OCCCN2CCN(c3cccc4sccc34)CC2)n1 [Example 7, 2-[3-(4-benzo[b]thiophen-4-yl-piperazin-1-yl)propoxy]thiazole-4-carboxamide]	–	8.54	9.10
COC(=O)N(C)c1cc(C)c(OCCCN2CCN(c3cccc4sccc34)CC2)c(OC)c1 [Example 17, methyl N-methyl-{4-[3-(4-benzo[b]thiophen-4-yl-piperazin-1-yl)propoxy]-3-methoxy-5-methylphenyl}carbamate hydrochloride]	–	8.47	9.22
CCNC(=O)c1ccc(OCCCN2CCN(c3cccc4sccc34)CC2)nc1 [Example 26]	–	9.10	8.59
CCNC(=O)c1ccnc(OCCCN2CCN(c3cccc4sccc34)CC2)c1 [Example 32]	–	8.85	8.60
Cc1ccc(OCCCN2CCN(c3cccc4sccc34)CC2)cn1 [Example 40]	–	9.22	8.51
CNC(=O)c1cc(OCCCN2CCN(c3cccc4sccc34)CC2)ncn1 [Example 58]	–	8.31	8.70
CCNC(=O)c1cc(OCCCN2CCN(c3cccc4sccc34)CC2)n(C)n1 [Example 62]	–	8.33	8.80
CCNC(=O)c1cc(OCCCN2CCN(c3cccc4sccc34)CC2)no1 [Example 72]	–	8.47	8.47
CCNC(=O)c1csc(OCCCN2CCN(c3cccc4sccc34)CC2)n1 [Example 73]	–	8.25	8.89
CNC(=O)c1cc(OCCCN2CCN(c3cccc4sccc34)CC2)cs1 [Example 76]	–	8.77	8.60
c1cc(N2CCN(CCCCOc3ccncc3)CC2)c2ccsc2c1 [Example 80]	–	8.48	8.80
Cn1cnc2ccc(OCCCN3CCN(c4cccc5sccc45)CC3)cc2c1=O [Example 95]	–	8.64	8.72
O=c1[nH]c2ccc(OCCCN3CCN(c4cccc5sccc45)CC3)cc2[nH]1 [Example 112]	–	9.15	9.00
Cc1cc(=O)oc2cc(OCCCN3CCN(c4cccc5sccc45)CC3)ccc12 [Example 115]	–	8.43	8.80
Cn1cnc2cc(OCCCN3CCN(c4cccc5sccc45)CC3)ccc21 [Example 121]	–	8.82	8.96
CN1Cc2ccc(OCCCN3CCN(c4cccc5sccc45)CC3)cc2C1=O [Example 123]	–	8.85	9.15
O=C1CCc2ccc(OCCCN3CCN(c4cccc5sccc45)CC3)cc21 [Example 125]	–	8.41	8.70
O=C1Cc2ccc(OCCCCN3CCN(c4cccc5sccc45)CC3)cc2N1 [Example 127]	–	8.62	9.40
O=C1Nc2cc(OCCCCN3CCN(c4cccc5sccc45)CC3)ccc2CO1 [Example 133]	–	8.33	9.52
CC1Oc2ccc(OCCCCN3CCN(c4cccc5sccc45)CC3)cc2NC1=O (stereo not shown) [Example 144]	–	8.85	9.40
O=C1NCc2ccc(OCCCCN3CCN(c4cccc5sccc45)CC3)cc2N1 [Example 146]	–	8.62	10.00

Structure (SMILES)	melting point [°C]	pKi [1]	pKi (Dopamine D2 receptor)
CCN(CC)CCNC(=O)c1ccc(OCCCN2CCN(c3cccc4sccc34)CC2)cc1 [Example 160]	–	9.22	9.40
CNC(=O)c1ccc(OC)c(OCCCN2CCN(c3cccc4sccc34)CC2)c1 [Example 281]	–	9.22	9.52
CCNCc1ccc(OCCCN2CCN(c3cccc4sccc34)CC2)cc1 [Example 286]	–	9.10	9.70
CN(C)Cc1ccc(OCCCN2CCN(c3cccc4sccc34)CC2)c(Cl)c1 [Example 303]	–	8.60	9.00
CCN(C)Cc1ccc(OCCCN2CCN(c3cccc4sccc34)CC2)c(C)c1 [Example 307]	–	9.15	9.52
c1cc(N2CCN(CCCOc3ccc(CN4CCOCC4)cc3)CC2)c2ccsc2c1 [Example 313]	–	8.96	9.15
CN1CCN(Cc2ccc(OCCCN3CCN(c4cccc5sccc45)CC3)cc2)CC1 [Example 314]	–	9.10	9.10
CC(=O)Nc1ccc(OCCCN2CCN(c3cccc4sccc34)CC2)cc1 [Example 343]	–	9.30	9.05
CCS(=O)(=O)Nc1ccc(OCCCN2CCN(c3cccc4sccc34)CC2)cc1 [Example 345]	–	8.72	8.80
COc1cc(NC=O)cc(C)c1OCCCN1CCN(c2cccc3sccc23)CC1 [Example 354]	–	9.22	9.70
COc1cc(N2CCOC2=O)cc(C)c1OCCCN1CCN(c2cccc3sccc23)CC1 [Example 358]	–	8.96	9.70
COc1cc(N2CCCC2=O)cc(CO)c1OCCCN1CCN(c2cccc3sccc23)CC1 [Example 359]	–	8.96	9.70
COC(=O)Nc1ccc(OCCCN2CCN(c3cccc4sccc34)CC2)c(F)c1 [Example 363]	–	8.96	8.70
CCN(CC)CCc1ccc(OCCCN2CCN(c3cccc4sccc34)CC2)cc1 [Example 368]	–	9.15	9.40
CN(C)CCc1ccc(OCCCN2CCN(c3cccc4sccc34)CC2)cc1 [Example 382]	–	9.22	9.30
CC(C)N(CCNC(=O)c1ccc(OCCCN2CCN(c3cccc4sccc34)CC2)cc1)C(C)C [Example 546]	–	9.15	9.22
O=C(NCCCn1ccnc1)c1ccc(OCCCN2CCN(c3cccc4sccc34)CC2)cc1 [Example 650]	–	9.22	8.92
O=C(c1ccc(OCCCN2CCN(c3cccc4sccc34)CC2)cc1)N1CCN(c2ccncc2)CC1 [Example 706]	–	9.05	9.00
CC1(C)C(=O)Nc2ccc(OCCCN3CCN(c4cccc5sccc45)CC3)cc21 [Example 1014]	–	8.38	8.48
Cn1c(=O)oc2cc(OCCCN3CCN(c4cccc5sccc45)CC3)ccc21 [Example 1016]	–	8.64	8.66
O=C1CCCc2ccc(OCCCN3CCN(c4cccc5sccc45)CC3)cc2N1 [Example 1026]	–	8.46	8.72
O=C1CCOc2cc(OCCCN3CCN(c4cccc5sccc45)CC3)ccc2N1 [Example 1027]	–	8.70	8.72
CN1CC(=O)N(C)c2ccc(OCCCN3CCN(c4cccc5sccc45)CC3)cc2C1=O [Example 1034]	–	8.51	8.68
COc1cc(N2CCN(C(C)=O)CC2)cc(CO)c1OCCCN1CCN(c2cccc3sccc23)CC1 [Example 1084]	–	8.85	10.00
